In brackets after ≈: the same amount, converted by molar mass. Activity calls are given as the source filed them. The rule behind the calls is not given here.
What was measured:
[1] = Clearance in rat plasma at 10 mg/kg, iv administered 15 mins of infusion measured for 0 to 24 hrs by LC-MS/MS analysis; format: ADME, organism-based; parameters: dose 10 mg/kg, route intravenous
[2] = Inhibition of ATPase activity in Escherichia coli ParE by ammonium molybdate/malachite green-based absorbance assay
Moraxella catarrhalis = test: Antibacterial activity against wild type Moraxella catarrhalis ATCC 43617 assessed as growth inhibition after 18 to 24 hrs by CLSI broth microdilution method; format: functional
Staphylococcus aureus [3] = test: Antibacterial activity against methicillin-resistant and […] Staphylococcus aureus assessed as growth inhibition after 18 to 24 hrs by CLSI broth microdilution method; format: functional
Escherichia coli [4] = test: Antibacterial activity against wild type Escherichia coli W3110 assessed as growth inhibition after 18 to 24 hrs by CLSI broth microdilution method; format: functional
[5] = Octanol-phosphate buffer partition coefficient, log D of the compound at pH 7.4 after 1 hr by shake flask method; format: physicochemical
Staphylococcus aureus [6] = test: Antibacterial activity against methicillin-sensitive wild type Staphylococcus aureus assessed as growth inhibition after 18 to 24 hrs by CLSI broth microdilution method; format: functional
[7] = Inhibition of ATPase activity in Escherichia coli GyrA/GyrB by ammonium molybdate/malachite green-based absorbance assay
[8] = Antibacterial activity against Streptococcus pneumoniae D39 NCTC 7466 assessed as growth inhibition after 18 to 24 hrs by CLSI broth microdilution method; format: functional
[9] = Antibacterial activity against wild type Haemophilus influenzae Rd KW20 ATCC 51907 assessed as growth inhibition after 18 to 24 hrs by CLSI broth microdilution method; format: functional
Escherichia coli [10] = test: Antibacterial activity against tolC efflux pump deficient Escherichia coli W3110 assessed as growth inhibition after 18 to 24 hrs by CLSI broth microdilution method; format: functional
[11] = Inhibition of ATPase activity in Escherichia coli ParC/ParE by ammonium molybdate/malachite green-based absorbance assay
[12] = Unbound fraction in human at 10 uM after 16 hrs by LC-MS/MS analysis; format: ADME; conditions: plasma
[13] = Dissociation constant, pKa of the compound; format: physicochemical
[14] = Solubility of the compound; format: physicochemical
[15] = Volume of distribution at steady state in rat plasma at 10 mg/kg, iv administered 15 mins of infusion measured for 0 to 24 hrs by LC-MS/MS analysis; format: ADME, organism-based; parameters: dose 10 mg/kg, route intravenous; conditions: read-out: Vdss
DNA gyrase subunit B = DNA gyrase subunit B (Staphylococcus aureus, UniProt P0A0K8); test: Inhibition of ATPase activity in Staphylococcus aureus GyrB tetramer in presence of Escherichia coli GyrA by ammonium molybdate/malachite green-based absorbance assay
[16] = Antibacterial activity against fluoroquinolone-resistant Streptococcus pneumoniae D39 NCTC 7466 expressing GyrA S81F/ParC S79F double mutant assessed as growth inhibition after 18 to 24 hrs by CLSI broth microdilution method; format: functional
[17] = Antibacterial activity against fluoroquinolone-resistant Streptococcus pneumoniae D39 NCTC 7466 expressing GyrB/ParE T172A mutant assessed as growth inhibition after 18 to 24 hrs by CLSI broth microdilution method; format: functional
[18] = Antibacterial activity against fluoroquinolone-resistant Streptococcus pneumoniae D39 NCTC 7466 expressing GyrB T172A/ParE T172A double mutant assessed as growth inhibition after 18 to 24 hrs by CLSI broth microdilution method; format: functional
[19] = Antibacterial activity against fluoroquinolone-resistant Streptococcus pneumoniae D39 NCTC 7466 expressing GyrA S81Y/ParC S79F double mutant assessed as growth inhibition after 18 to 24 hrs by CLSI broth microdilution method; format: functional
Streptococcus pneumoniae [20] = test: microbe, parasite or virus in culture
Description: Antibacterial activity against wild type Streptococcus pneumoniae assessed as growth inhibition after 18 to 24 hrs by CLSI broth microdilution method

[21] = Antibacterial activity against fluoroquinolone-resistant Streptococcus pneumoniae D39 NCTC 7466 expressing GyrA S81F/ParC S79Y double mutant assessed as growth inhibition after 18 to 24 hrs by CLSI broth microdilution method; format: functional
[22] = Antibacterial activity against fluoroquinolone-resistant Streptococcus pneumoniae D39 NCTC 7466 expressing ParE/GyrB T172A mutant assessed as growth inhibition after 18 to 24 hrs by CLSI broth microdilution method; format: functional
[23] = Antibacterial activity against fluoroquinolone-resistant Streptococcus pneumoniae D39 NCTC 7466 expressing GyrB K143A/ParE T172A double mutant assessed as growth inhibition after 18 to 24 hrs by CLSI broth microdilution method; format: functional
[24] = Antibacterial activity against fluoroquinolone-resistant Streptococcus pneumoniae D39 NCTC 7466 expressing ParE/GyrB K143I mutant assessed as growth inhibition after 18 to 24 hrs by CLSI broth microdilution method; format: functional
Staphylococcus aureus [25] = test: Resistance factor, ratio of MIC for Staphylococcus aureus drug resistance mutants at 0.05 ug/ml after 7 days to MIC for wild type methicillin-sensitive Staphylococcus aureus at 0.2 ug/ml after 7 days; format: functional
Staphylococcus aureus [26] = test: Antibacterial activity against ip dosed Staphylococcus aureus infected in neutropenic mouse thigh model assessed as decrease in bacterial viable counts administered up to 12 hrs; format: functional; conditions: Thigh muscle
Staphylococcus aureus [27] = test: Antibacterial activity against Staphylococcus aureus infected in neutropenic mouse thigh model assessed as decrease in bacterial viable counts at 300 mg/kg, ip administered up to 12 hrs relative to vehicle-treated control; format: functional; conditions: route intraperitoneal
Staphylococcus aureus [28] = test: Resistance factor, ratio of MIC for Staphylococcus aureus drug resistance mutants at 0.05 ug/ml after 7 days to MIC for wild type methicillin-sensitive Staphylococcus aureus at 0.05 ug/ml after 7 days; format: functional
[29] = Clearance in mouse; format: ADME, organism-based; conditions: in vivo
[30] = Volume of distribution at steady state in mouse; format: ADME, organism-based; conditions: in vivo, read-out: Vdss
Staphylococcus aureus [31] = test: Antibacterial activity against ip dosed Staphylococcus aureus infected in neutropenic mouse thigh model assessed as decrease in bacterial viable counts administered up to 12 hrs relative to vehicle-treated control; format: functional, organism-based; conditions: Thigh muscle
Staphylococcus aureus [32] = test: Resistance factor, ratio of MIC for Staphylococcus aureus drug resistance mutants at 0.05 ug/ml after 7 days to MIC for wild type methicillin-sensitive Staphylococcus aureus at 0.1 ug/ml after 7 days; format: functional
Staphylococcus aureus [33] = test: Antibacterial activity against Staphylococcus aureus infected in neutropenic mouse thigh model assessed as decrease in bacterial viable counts at 300 mg/kg, ip administered up to 12 hrs; format: functional, organism-based; parameters: dose 300 mg/kg
Staphylococcus aureus [34] = test: Inhibition of DNA synthesis in methicillin-sensitive wild type Staphylococcus aureus over 1 hr by [3H]thymidine incorporation assay; format: functional, organism-based
Staphylococcus aureus [35] = test: Inhibition of protein synthesis in methicillin-sensitive wild type Staphylococcus aureus over 1 hr by [14C]valine incorporation assay; format: functional, organism-based
Staphylococcus aureus [36] = test: Inhibition of protein synthesis in methicillin-sensitive wild type Staphylococcus aureus over 1 hr by [14C]leucine incorporation assay; format: functional, organism-based
Staphylococcus aureus [37] = test: Inhibition of RNA synthesis in methicillin-sensitive wild type Staphylococcus aureus over 1 hr by [3H]uridine incorporation assay; format: functional, organism-based
Streptococcus pneumoniae [38] = test: Inhibition of fatty acid synthesis in Streptococcus pneumoniae D39 over 1 hr by [14C]acetic acid incorporation assay; format: functional; conditions: D39, 1 h
Staphylococcus aureus [39] = test: Inhibition of fatty acid synthesis in methicillin-sensitive wild type Staphylococcus aureus over 1 hr by [14C]acetic acid incorporation assay; format: functional, organism-based
Streptococcus pneumoniae [40] = test: Inhibition of DNA synthesis in Streptococcus pneumoniae D39 over 1 hr by [3H]thymidine incorporation assay; format: functional
Streptococcus pneumoniae [41] = test: Inhibition of RNA synthesis in Streptococcus pneumoniae D39 over 1 hr by [3H]uridine incorporation assay; format: functional
Streptococcus pneumoniae [42] = test: Inhibition of cell wall synthesis in Streptococcus pneumoniae D39 over 1 hr by [14C]N-acetyl glucosamine incorporation assay; format: functional; conditions: D39, 1 h
Streptococcus pneumoniae [43] = test: Inhibition of protein synthesis in Streptococcus pneumoniae D39 over 1 hr by [14C]valine incorporation assay; format: functional; conditions: D39, 1 h
Streptococcus pneumoniae [44] = test: Inhibition of protein synthesis in Streptococcus pneumoniae D39 over 1 hr by [14C]leucine incorporation assay; format: functional; conditions: D39, 1 h
Staphylococcus aureus [45] = test: Inhibition of cell wall synthesis in methicillin-sensitive wild type Staphylococcus aureus over 1 hr by [14C]N-acetyl glucosamine incorporation assay; format: functional, organism-based

Sequence of DNA gyrase subunit B (P0A0K8 whole entry): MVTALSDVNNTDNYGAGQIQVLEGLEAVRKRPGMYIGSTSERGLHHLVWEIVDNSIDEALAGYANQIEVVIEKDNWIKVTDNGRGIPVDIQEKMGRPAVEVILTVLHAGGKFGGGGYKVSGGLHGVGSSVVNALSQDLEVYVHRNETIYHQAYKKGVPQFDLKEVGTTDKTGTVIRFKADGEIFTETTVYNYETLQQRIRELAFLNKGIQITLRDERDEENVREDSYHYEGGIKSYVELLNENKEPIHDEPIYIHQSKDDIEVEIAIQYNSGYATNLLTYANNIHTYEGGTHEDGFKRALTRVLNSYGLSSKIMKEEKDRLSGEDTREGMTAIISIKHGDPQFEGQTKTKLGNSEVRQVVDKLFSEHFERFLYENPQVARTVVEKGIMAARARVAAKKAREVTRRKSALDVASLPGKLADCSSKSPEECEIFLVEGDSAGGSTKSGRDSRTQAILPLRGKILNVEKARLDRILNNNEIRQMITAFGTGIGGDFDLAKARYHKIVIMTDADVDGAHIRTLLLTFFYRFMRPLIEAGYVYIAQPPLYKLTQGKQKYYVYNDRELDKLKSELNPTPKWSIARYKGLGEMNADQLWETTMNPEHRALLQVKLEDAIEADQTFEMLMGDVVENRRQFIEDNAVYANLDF

Compound	clearance [1]	IC50 [2]	MIC (Moraxella catarrhalis)	MIC (Staphylococcus aureus [3])	MIC (Escherichia coli [4])	logD at 1 h [5]	MIC (Staphylococcus aureus [6])	IC50 [7]	MIC [8]	MIC [9]	MIC (Escherichia coli [10])	IC50 [11]	fraction unbound at 16 h, 10 µM [12]	pKa [13]	solubility [14]	Vd [15]	IC50 (DNA gyrase subunit B)	MIC [16]	MIC [17]	MIC [18]	further results
CCNC(=O)Nc1cc(-c2nc(C(F)(F)F)cs2)c(-c2cncc(-c3noc(=O)[nH]3)c2)cn1	360 mL/min/kg	11 nM	24 µg/mL (≈ 50.3 µM)	48 µg/mL (≈ 101 µM)	> 64 µg/mL	0.28	48 µg/mL (≈ 101 µM)	< 10 nM	0.74 µg/mL (≈ 1.55 µM)	> 64 µg/mL	12 µg/mL (≈ 25.1 µM)	1500 nM	0.011	5.4	830 µM (≈ 396 µg/mL)	3.5 L/kg	14 nM	–	–	–	–
CCNC(=O)Nc1cc(-c2nc(C(F)(F)F)cs2)c(-c2cncc(C(=O)O)c2)cn1	–	< 10 nM	64 µg/mL (≈ 146 µM)	–	> 64 µg/mL	-0.62	> 64 µg/mL	< 10 nM	2 µg/mL (≈ 4.57 µM)	> 64 µg/mL	16 µg/mL (≈ 36.6 µM)	510 nM	0.082	3.7	800 µM (≈ 350 µg/mL)	–	< 10 nM	–	–	–	–
CN(C)[C@@H]1C(O)=C(C(N)=O)C(=O)[C@@]2(O)C(O)=C3C(=O)c4c(O)cccc4[C@@](C)(O)[C@H]3C[C@@H]12 [TETRACYCLINE]	–	–	–	–	–	–	–	–	–	–	–	–	–	–	–	–	–	0.13 µg/mL (≈ 0.293 µM)	0.25 µg/mL (≈ 0.563 µM)	0.25 µg/mL (≈ 0.563 µM)	MIC [19]: 0.25 µg/mL (≈ 0.563 µM); MIC (Streptococcus pneumoniae [20]): 0.25 µg/mL (≈ 0.563 µM); MIC [21]: 0.13 µg/mL (≈ 0.293 µM); MIC [22]: 0.25 µg/mL (≈ 0.563 µM); MIC [23]: 0.25 µg/mL (≈ 0.563 µM); MIC [24]: 0.25 µg/mL (≈ 0.563 µM)
CCNC(=O)Nc1cc(-c2nc(C(F)(F)F)cs2)c(-c2cncc(-c3n[nH]c(=O)o3)c2)cn1	36 mL/min/kg	< 10 nM	0.04 µg/mL (≈ 0.0838 µM)	0.06 µg/mL (≈ 0.126 µM)	> 64 µg/mL	2	0.04 µg/mL (≈ 0.0838 µM)	< 10 nM	0.05 µg/mL (≈ 0.105 µM)	0.69 µg/mL (≈ 1.45 µM)	0.15 µg/mL (≈ 0.314 µM)	230 nM	0.044	6.6	19 µM (≈ 9.07 µg/mL)	0.66 L/kg	< 10 nM	0.0025 µg/mL (≈ 0.00524 µM)	0.01 µg/mL (≈ 0.0209 µM)	0.02 µg/mL (≈ 0.0419 µM)	Ratio (Staphylococcus aureus [25]): 16; MIC [19]: 0.0025 µg/mL (≈ 0.00524 µM); MIC (Streptococcus pneumoniae [20]): 0.0025 µg/mL (≈ 0.00524 µM); ED50 (Staphylococcus aureus [26]): 200 mg/kg; MIC [21]: 0.0025 µg/mL (≈ 0.00524 µM); MIC [22]: 0.01 µg/mL (≈ 0.0209 µM); fold change (FC) (Staphylococcus aureus [27]): 3000; Ratio (Staphylococcus aureus [28]): 16; clearance [29]: 74 mL/min/kg; Vd [30]: 2.6 L/kg; MIC [23]: 0.04 µg/mL (≈ 0.0838 µM); Activity (Staphylococcus aureus [31]): Dose-dependent effect; Ratio (Staphylococcus aureus [32]): 16; Activity (Staphylococcus aureus [33]): Active; MIC [24]: 0.01 µg/mL (≈ 0.0209 µM)
CCNC(=O)Nc1cc(-c2nc(C(F)(F)F)cs2)c(-c2cncc(C(N)=O)c2)cn1	120 mL/min/kg	12 nM	0.7 µg/mL (≈ 1.6 µM)	1.4 µg/mL (≈ 3.21 µM)	> 64 µg/mL	2	2.7 µg/mL (≈ 6.19 µM)	17 nM	0.09 µg/mL (≈ 0.206 µM)	5.5 µg/mL (≈ 12.6 µM)	1.6 µg/mL (≈ 3.67 µM)	960 nM	0.36	–	26 µM (≈ 11.3 µg/mL)	1.5 L/kg	< 10 nM	–	–	–	IC50 (Staphylococcus aureus [34]): 1600 nM; IC50 (Staphylococcus aureus [35]): 31 µM; IC50 (Staphylococcus aureus [36]): 8.8 µM; IC50 (Staphylococcus aureus [37]): 6.9 µM; IC50 (Streptococcus pneumoniae [38]): > 20 µM; IC50 (Staphylococcus aureus [39]): > 200 µM; IC50 (Streptococcus pneumoniae [40]): 460 nM; IC50 (Streptococcus pneumoniae [41]): 830 nM; IC50 (Streptococcus pneumoniae [42]): > 20 µM; IC50 (Streptococcus pneumoniae [43]): 1200 nM; IC50 (Streptococcus pneumoniae [44]): 860 nM; IC50 (Staphylococcus aureus [45]): > 200 µM

Reference: ChEMBL document CHEMBL3232928, “Fragment-to-hit-to-lead discovery of a novel pyridylurea scaffold of ATP competitive dual targeting type II topoisomerase inhibiting antibacterial agents” (J Med Chem, 2013)
